The values below come from patent publication US7091197B2, “Beta-lactamase inhibitor prodrug” (Pfizer Inc., priority 2002, dated 2006).

The subject of series [1] is Klebsiella pneumonaie (53A0031). The series is described as follows: Murine systemic infection model, K. pneumoniae. Type of series: in vivo. As to conditions: 96 h, oral, single agent, K. pneumoniae 53A0031, survival day 4.
The subject of series [2] is 21 penicillin-resistant strains of S. pneumoniae. The experiment in a line: microbe, parasite or virus in culture. It counts as cell-based. The conditions noted are these: Streptococcus pneumoniae; some S. pneumoniae clinical isolates; read-out: MICs of strains with high-level resistance.
Series [3] deals with Streptococcus pneumoniae (02J1095). The series is described as follows: Mouse pneumonia model, S. pneumoniae 02J1095. It counts as in vivo. The conditions noted are these: 240 h, oral, single agent, survival day 10.
Series [4] has as its system Moraxella catarrhalis (87A1115). The series is described as follows: Murine systemic infection model, M. catarrhalis. It counts as in vivo. As to conditions: 96 h, oral, single agent, M. catarrhalis 87A1115, survival day 4.
In series [5] the test system is Haemophilus influenzae (54A1218). The series is described as follows: Murine systemic infection model, H. influenzae. The conditions noted are these: 96 h, oral, single agent, H. influenzae 54A1218, survival day 4. It counts as in vivo.
Series [6] relates to Eschericia coli (51A0257). The experiment in a line: Murine systemic infection model, E. coli. Type of series: in vivo. The conditions noted are these: Escherichia coli, 96 h, oral, single agent, E. coli 51A0257, survival day 4.
In series [7] the test system is Streptococcus pneumoniae (02J1016). The experiment in a line: Mouse pneumonia model, S. pneumoniae 02J1016. Type of series: in vivo. The conditions noted are these: 240 h, oral, single agent, survival day 10.
Series [8] relates to Haemophilus influenzae (54A1218). The series is described as follows: Gerbil otitis media model, H. influenzae. Type of series: in vivo.
The subject of series [9] is Staphylococcus aureus (01A0400). The experiment in a line: Murine systemic infection model, S. aureus. It counts as in vivo. The conditions noted are these: 96 h, oral, single agent, S. aureus 01A0400, survival day 4.
For series [10] the following is noted: clavulanate in the Augmentin suspension; room temperature, 10 days; cited from earlier work.
The nature of series [11]: Chemical (pH) stability in solution. It counts as physicochemical. How it is done:
Buffers were appropriately formulated to achieve the desired pH of each incubation. […] The temperature of the incubation was regulated with a 96-well heat block. Incubations were performed at 25° C. and 37° C. […] An apparent first-order half-life could then be estimated as ln 2/kd.

The target in series [12] is T1, BRO-2 β-lactamase (M. catarrhalis 87A1178 ATCC43617) (Moraxella catarrhalis, UniProt Q59514).
T1 sequence (Q59514 1-313 D293G): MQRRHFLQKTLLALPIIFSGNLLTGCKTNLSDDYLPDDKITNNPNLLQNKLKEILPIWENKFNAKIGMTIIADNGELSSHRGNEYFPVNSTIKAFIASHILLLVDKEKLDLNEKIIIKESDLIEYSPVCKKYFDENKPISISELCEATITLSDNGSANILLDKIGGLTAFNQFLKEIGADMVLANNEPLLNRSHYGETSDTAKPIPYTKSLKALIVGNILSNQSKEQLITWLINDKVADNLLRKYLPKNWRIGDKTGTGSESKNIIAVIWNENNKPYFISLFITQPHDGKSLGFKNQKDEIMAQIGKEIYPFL
The experiment in a line: β-lactamase inhibition in cell extracts, BRO-2. Type of series: biochemical.

The conditions of series [13]: in vivo, cited from earlier work.
A further series deals with BRO-1 and BRO-2 enzymes (Moraxella catarrhalis, UniProt Q59514). The experiment in a line: β-lactamases from 30 recent clinical isolates of M. catarrhalis. The conditions noted are these: BRO-1 and BRO-2 enzymes from 30 recent clinical isolates of M. catarrhalis. It counts as biochemical.
The target in series [14] is E. coli TEM-1 beta-lactamase (Escherichia coli, UniProt P62593). The experiment in a line: Beta-lactamase inhibitory activity at intestinal pH values. Type of series: biochemical.
Series [15] can be described thus: Portal vein studies in rats. It counts as in vivo. The conditions noted are these: portal vein cannulated rats; oral 100 mg/kg; 5, 15 and 30 minutes post dose; not detected, assay LLOQ. The method, then: Portal Vein Studies in Rats: Systemic exposure of Prodrug 3 was also assessed in portal vein cannulated rats following oral administration of the prodrug at a dose of 100 mg/kg. Whole blood aliquots were stabilized in ice cold acid immediately upon sampling at 5, 15 and 30 minutes post dose. No levels of Prodrug 3 were detected in any of the samples (assay LLOQ of 100 ng/ml).

Series [16] in a line: Prodrug 3 suspension stability (0.5% methylcellulose). As to conditions: for Potency (percent) in suspension: 1.51 mg/ml, un-buffered 0.5% methylcellulose, 25° C. Type of series: physicochemical.
A short description of another series: in vitro. The conditions noted are these: plasma. The method, then:
The incubation consisted of 990 μl of plasma preincubated for 5 minutes at 37° C. in a 96-well heat block. The incubation was initiated with the addition of 10 μl of a 10 mM stock of compound in 100% methanol. Serial aliquots (100 μl) were removed and transferred to 200 μl of 75/25 acetonitrile/3% perchloric acid at 0, 1, 2, 5, 10, 20, 30, and 60 minutes. The samples were centrifuged, the supernatants transferred to injection vials, and 20 μl was injected onto the HPLC in-line with a LC/MS single quadropole mass spectrometer. The LC/MS system was run in the negative ion mode. […] The peak response at each time point was expressed as a percentage of that obtained at time=0. A degradation rate constant (kd) was obtained by regression of these percentages from time=0 minutes to […]. An apparent first-order half-life was then be estimated as ln 2/kd. These determinations were completed in duplicate and the average was reported as shown below.

Series [17] is described as follows: Hepatic extraction, rat hepatocytes. It counts as in vitro ADME. The source says: (§1) L. and A. Barve, 1998. Linear correlation of the fraction of oral dose absorbed of 64 drugs between humans and rats. Pharm. Res. 15:1792–1795.). Based upon this correlation, the rat was used to predict human absorption. […] Thus, oral bioavailability assessments in rats should correlate well with the fraction absorbed in humans.

Series [18] is described as follows: Hepatic extraction, human hepatocytes. Type of series: in vitro ADME.
Source text: as §1

[19] abbreviates: buffer, pH 1.2, Half-life (Hours), solution stability.
[20] abbreviates: buffer, pH 2.5, Half-life (Hours), solution stability.
The mark [21] stands for this setting: buffer, pH 4, Half-life (Hours), solution stability.
The mark [22] stands for this setting: buffer, pH 5, Half-life (Hours), solution stability.

≈ marks a conversion by molar mass, not a printed value. Marks after values point to notes of the source that are not given here.

Sequence of E. coli TEM-1 beta-lactamase (P62593 24-286 limits assumed): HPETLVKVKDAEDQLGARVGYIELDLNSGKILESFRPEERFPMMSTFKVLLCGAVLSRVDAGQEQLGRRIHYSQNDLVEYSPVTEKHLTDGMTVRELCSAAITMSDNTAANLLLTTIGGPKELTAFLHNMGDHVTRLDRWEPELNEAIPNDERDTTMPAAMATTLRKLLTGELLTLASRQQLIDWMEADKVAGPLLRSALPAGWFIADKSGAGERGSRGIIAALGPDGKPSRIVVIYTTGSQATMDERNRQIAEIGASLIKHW
Sequence of BRO-1 and BRO-2 enzymes (Q59514 whole entry): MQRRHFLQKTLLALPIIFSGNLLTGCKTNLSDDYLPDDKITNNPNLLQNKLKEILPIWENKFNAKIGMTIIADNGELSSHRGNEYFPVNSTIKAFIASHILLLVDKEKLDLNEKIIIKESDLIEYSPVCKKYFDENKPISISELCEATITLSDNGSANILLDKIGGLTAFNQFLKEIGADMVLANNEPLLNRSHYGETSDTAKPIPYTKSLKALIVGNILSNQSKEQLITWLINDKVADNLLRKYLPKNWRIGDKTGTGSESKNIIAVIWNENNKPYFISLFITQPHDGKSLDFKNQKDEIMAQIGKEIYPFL

With `CC1(C)S[C@@H]2[C@H](NC(=O)[C@H](N)c3ccc(O)cc3)C(=O)N2[C@H]1C(=O)O` [Amoxicillin, amoxicillin], the median effective dose (ED50) (commonly the dose at which the effect has come halfway, by size or by number of responders) is greater than 200 mg/kg in series [1]; 25 mg/kg in series [3]; greater than 100 mg/kg in [4]; greater than 100 mg/kg in [5]; greater than 200 mg/kg in series [6]; 3.3 mg/kg in [7]. Also, in series [9], the median effective dose (ED50) was greater than 100 mg/kg. Further, in series [2], the MIC fell in the range of 4 to 8 µg/mL (≈ 10.9 to 21.9 µM). The “outcome as a single agent” value in series [8] (gerbil otitis media model) is “failed”.

With `O=C(O)[C@H]1/C(=C/CO)O[C@@H]2CC(=O)N21` [Clavulanate, lithium clavulanate], the “potency retained in suspension” value in series [10] is reported as 40%. Also, the “Half-life (Hours), solution stability” value in series [11] (buffer, 100 μM, pH 2.5) is 1.2 h; in [11] (buffer, 100 μM, pH 4) it was greater than 24 h; in [11] (buffer, 100 μM, pH 5), greater than 24 h; in series [11] (buffer, 100 μM, pH 6.5), greater than 24 h; in series [11] (buffer, 100 μM, pH 7.4), greater than 24 h. The half-life (usually the time in which the quantity being followed falls by half) at 100 μM in series [11] (setting [19]) was 0.6 h; in series [11] (setting [20]) it was 0.9 h; in [11] (setting [21]) it was greater than 24 h; in series [11] (setting [22]) it was greater than 24 h; in series [11] (buffer, pH 6.5, Half-life (Hours), solution stability), greater than 24 h; in series [11] (buffer, pH 7.4, Half-life (Hours), solution stability), greater than 24 h. Moreover, in [12], 110 nM corresponded to half-maximal inhibition (IC50). Moreover, the “fraction that remains unabsorbed from the intestine” value in series [13] (human) is listed as 40%. For the same compound, the “fraction absorbed into circulation” value in series [13] is given as 60%.

For `CC1(C)[C@H](C(=O)[O-])N2C(=O)[C@@H](CO)[C@H]2S1(=O)=O.[Na+]` [Na-HMPAS, 4-Thia-1-azabicyclo[3,2,0]heptane-2-carboxylic acid, 6-(hydroxymethyl)-3,3-dimethyl-7-oxo-, 4,4-dioxide, monosodium salt, (2S, 5R, 6R)], the half-life at 100 μM was greater than 24 h in series [11] (pH buffer, pH 1.2, pH 1.2, 25° C., 100 μM, read-out: Half-life (Hours), solution stability); greater than 24 h in series [11] (pH buffer, pH 1.2, pH 1.2, 37° C., 100 μM, read-out: Half-life (Hours), solution stability); greater than 24 h in [11] (pH buffer, pH 2.5, pH 2.5, 25° C., 100 μM, read-out: Half-life (Hours), solution stability); greater than 24 h in series [11] (pH buffer, pH 2.5, pH 2.5, 37° C., 100 μM, read-out: Half-life (Hours), solution stability); greater than 24 h in [11] (pH buffer, pH 4, pH 4.0, 25° C., 100 μM, read-out: Half-life (Hours), solution stability); greater than 24 h in [11] (pH buffer, pH 4, pH 4.0, 37° C., 100 μM, read-out: Half-life (Hours), solution stability). In addition, the half-life at 100 μM was greater than 24 h in series [11] (pH buffer, pH 5, pH 5.0, 25° C., 100 μM, read-out: Half-life (Hours), solution stability); greater than 24 h in [11] (pH buffer, pH 5, pH 5.0, 37° C., 100 μM, read-out: Half-life (Hours), solution stability); greater than 24 h in [11] (pH buffer, pH 6.5, pH 6.5, 25° C., 100 μM, read-out: Half-life (Hours), solution stability); greater than 24 h in series [11] (pH buffer, pH 6.5, pH 6.5, 37° C., 100 μM, read-out: Half-life (Hours), solution stability); greater than 24 h in series [11] (pH buffer, pH 7.4, pH 7.4, 25° C., 100 μM, read-out: Half-life (Hours), solution stability); greater than 24 h in series [11] (pH buffer, pH 7.4, pH 7.4, 37° C., 100 μM, read-out: Half-life (Hours), solution stability). For the same compound, on BRO-1 and BRO-2 enzymes, the half-inhibitory concentration (IC50) (in general, the midpoint of a concentration-inhibition curve) is 190 nM.

`C[C@H](OC(=O)c1ccccc1)OC(=O)[C@@H]1N2C(=O)[C@@H](CO)[C@H]2S(=O)(=O)C1(C)C` [Prodrug 3, 4-Thia-1-azabicyclo[3.2.0]heptane-2-carboxylic acid, 6-(hydroxymethyl)-3,3-dimethyl-7-oxo-, (1R)-1-(benzoyloxy)ethyl ester, 4,4-dioxide (2S, 5R, 6R)]: the ED50 in series [1] is greater than 25 mg/kg; in [3] it was greater than 25 mg/kg; in [4] it was greater than 100 mg/kg; in series [5] it was greater than 25 mg/kg; in series [6], greater than 100 mg/kg; in series [7], greater than 25 mg/kg. Besides, the ED50 in series [8] (Haemophilus influenzae, 96 h, oral, single agent, gerbil otitis media, H. influenzae 54A1218, bacterial clearance day 4) was greater than 25 mg/kg; in series [9], greater than 12.5 mg/kg. Besides, the 50% inhibitory concentration (IC50) was greater than 100000 nM in series [14] (pH 6.0) and 2200 nM in series [14] (pH 7.0). For the same compound, the “levels of Prodrug 3 in portal vein blood” value in series [15] was less than 100 ng/mL. Further, the “Potency (percent) in suspension” value in [16] (Day 3) is recorded as 103%; in series [16] (Day 5), 98%; in [16] (Day 7) it was 104%; in [16] (Day 10, pH ~6.8 initially, 4.7 by day 10) it was 91*** percent. In addition, the “potency maintained in suspension” value in series [16] (storage at room temperature for 10 days) is given as “greater than 90%”. The half-life at 100 μM is 2.8 min in the series “in vitro” (dog); less than 2 min in the series “in vitro” (human); 3.6 min in “in vitro” (monkey); 2.8 min in the series “in vitro” (mouse); less than 2 min in the series “in vitro” (rat); greater than 24 h in series [11] (setting [19]). Moreover, the half-life at 100 μM in [11] (setting [20]) was greater than 24 h; in [11] (setting [21]) it was greater than 24 h; in series [11] (setting [22]), greater than 24 h; in series [11] (buffer, pH 7, half-life of conversion of the prodrug to active inhibitor), 0.55 h; in series [11] (solution half-life), 0.5 h. Further, the “Half-life (Hours), solution stability” value is greater than 24 h in [11] (buffer, 100 μM, pH 1.2); greater than 24 h in [11] (buffer, 100 μM, pH 2.5); greater than 24 h in series [11] (buffer, 100 μM, pH 4); greater than 24 h in [11] (buffer, 100 μM, pH 5).

For `CC1(C)[C@H](C(=O)O)N2C(=O)[C@@H](CO)[C@H]2S1(=O)=O` [Prodrug 6-β-HMPAS, 6-β-hydroxymethylpenicillanic acid sulfone], the hepatic extraction result in [17] and in [18] was “minimal hepatic extraction” each time. Moreover, the half-inhibitory concentration (IC50) in series [12] is 320 nM.
